From patent publication US20050222234A1, “Mucin production inhibitor” (TAIHO PHARMACEUTICAL CO., LTD., priority 2004, published 2005)

Key:
NCI-H292 cells = experiment: Mucin production inhibitory action (EGF-stimulated, mucin ELISA of culture supernatant); assay type: cell-based, human; details: for Effect on production of mucin (in words): 1-10 μM, EGF-stimulated NCI-H292 cells
Method: Mucin Production Inhibitory Action
The test was carried out in accordance with a partially modified method of Takeyama et al. (Proc. Natl. Acad. Sci. USA, Vol. 96, P. 3081-3086, 1999). The specific procedure will be described as follows. NCI-H292 cells, which are human respiratory tract epithelial cell lines, were suspended in a 10% FCS-containing RPMI 1640-culture medium, and disseminated to a 12-well culture plate so that the cell concentration of each well was adjusted to 2×10^5 cell/well, followed by culturing for two days. Subsequently, the culture medium was changed to a 0.2% FCS-containing RPMI culture medium, followed by culturing for another two days. The thus-cultured cells were employed in the test. Each test drug and EGF (25 ng/mL) were added to each well, and the mucin level of the supernatant of the culture 48 hours after initiation of culturing was determined through the ELISA method. Percent inhibition (%) with regard to control value was calculated by supposing the difference produced by subtracting normal value from control value to be 100%. In this case, the control value is defined as the mucin amount in the culture supernatant to which only EGF was added, while the normal value is defined as the muchin amount in the culture supernatant containing neither of test drug and EGF. In addition, cilomilast (J. Pharmacol. Exp. Ther., Vol. 284, p. 420-426, 1998) and roflumilast (J. Pharmacol. Exp. Ther., Vol. 297, p. 267-279, 2001), which are typical phosphodiesterase (IV) inhibitors were also tested in a similar manner.

Lewis Wistar rats = experiment: Inhibitory effect on hyperplasia of goblet cells in the respiratory tract epithelium (Sephadex-induced, PAS staining); assay type: in vivo, rat; details: oral, once per day for seven days; Sephadex i.v.; ratio of PAS-positive area
Method: (Welch test), the value in each parenthesis represents percent inhibition (%)
The test was carried out in accordance with a partially modified method of Matsubara et al. (Int. Arch. Allergy Immunol., Vol. 116, p. 67-75, 1998). The specific procedure will be described as follows. To each of the 7-week old male Lewis Wistar rats, a Sephadex suspension (0.1. mg/mL/head) was intravenously administered (total three times: day 0, 2, and 5). Two days after the final administration, the rat was slaughtered by exsanguination under anesthetic with pentobarbital. The lung-tissue was extirpated from the rat and immersed in a neutral formalin buffer for fixation. […] The ratio of the PAS-stained positive area to the respiratory tract epithelium was calculated by use of an image analysis software (Winroof). Each test compound was suspended in 0.5% hydroxypropylmethyl cellulose (HPMC), and the suspension-was orally administered once per day for continuous seven days from the start of administration of Sephadex. In the Figure, numerical data are represented by mean value±standard deviation (each group: 11-12 samples).

SMILES: COc1ccc([C@]2(C#N)CC[C@@H](C(=O)O)CC2)cc1OC1CCCC1 [Cilomilast, cilomilast, reference compound]
- Effect on production of mucin (in words) (NCI-H292 cells): promoted production of mucin

SMILES: COc1ccc(-c2nc3cc(-n4cncn4)ccc3[nH]2)cc1OCC1CC1 [Compound 1]
- Effect on hyperplasia of goblet cells (in words, FIG. 1) (Lewis Wistar rats): inhibitory effect

SMILES: CCC(CC)Oc1cc(-c2nc3cc(-n4cncn4)ccc3[nH]2)ccc1OC [Compound 5]
- inhibition at 1 µM (NCI-H292 cells; Homo sapiens, NCI-H292, 1 μM test drug, EGF 25 ng/mL, supernatant after 48 hours, read-out: Percent inhibition of mucin production (%)): 15.4%
- inhibition at 3 µM (NCI-H292 cells; Homo sapiens, NCI-H292, 3 μM test drug, EGF 25 ng/mL, supernatant after 48 hours, read-out: Percent inhibition of mucin production (%)): 40.2%
- inhibition at 10 µM (NCI-H292 cells; Homo sapiens, NCI-H292, 10 μM test drug, EGF 25 ng/mL, supernatant after 48 hours, read-out: Percent inhibition of mucin production (%)): 65.9%

SMILES: O=C(Nc1c(Cl)cncc1Cl)c1ccc(OC(F)F)c(OCC2CC2)c1 [Roflumilast, roflumilast, reference compound]
- Effect on production of mucin (in words) (NCI-H292 cells): promoted production of mucin
